ChEMBL document CHEMBL1151306, “Inhibitory activity of unsaturated fatty acids and anacardic acids toward soluble tissue factor-factor VIIa complex” (J Nat Prod, 1998)
pIC50: −log10 of the molar value. Several values for one entry are separate records, joined by “and”; a condition that tells them apart may be missing. Equal entries are not always repeated.

Key:
[1] = target: T1, Trypsin (Sus scrofa, UniProt P00761)
Description: (§1) Inhibition of pig pancreatic trypsin after 15 mins

[2] = physchem; conditions: octanol/water
Description: (§2) Octanol-water partition coefficient, log P of the compound

[3] = target: Coagulation factor VII/tissue factor (Homo sapiens, UniProt P08709)
Description: Inhibition of amidolytic activity of human tissue factor/human factor 7a

[4] = target: T1, Trypsin; remark: listed apart in the source
Description: as §1

[5] = octanol/water
Description: as §2

T1 sequence (P00761 whole entry): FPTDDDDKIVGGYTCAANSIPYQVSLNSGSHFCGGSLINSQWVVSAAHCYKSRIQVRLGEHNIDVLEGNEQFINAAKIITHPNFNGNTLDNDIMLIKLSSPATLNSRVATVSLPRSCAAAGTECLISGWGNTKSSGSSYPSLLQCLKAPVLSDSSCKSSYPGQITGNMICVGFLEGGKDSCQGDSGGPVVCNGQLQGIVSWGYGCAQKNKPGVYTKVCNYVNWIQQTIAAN
Chain of Coagulation factor VII/tissue factor (P08709 61-212 limits assumed): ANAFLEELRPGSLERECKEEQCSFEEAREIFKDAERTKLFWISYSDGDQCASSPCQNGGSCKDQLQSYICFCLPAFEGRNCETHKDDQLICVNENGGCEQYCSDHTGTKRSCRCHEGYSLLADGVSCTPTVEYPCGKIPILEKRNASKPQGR
Chain of Coagulation factor VII/tissue factor (P08709 213-466 limits assumed): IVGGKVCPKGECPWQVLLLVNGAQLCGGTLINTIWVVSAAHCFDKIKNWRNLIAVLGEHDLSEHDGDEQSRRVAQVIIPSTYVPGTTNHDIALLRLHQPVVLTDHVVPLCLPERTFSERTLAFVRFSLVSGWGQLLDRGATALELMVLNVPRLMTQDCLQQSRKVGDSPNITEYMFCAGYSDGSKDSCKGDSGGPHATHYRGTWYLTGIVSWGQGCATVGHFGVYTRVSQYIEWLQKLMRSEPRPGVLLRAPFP
Chain of Coagulation factor VII/tissue factor (P13726 33-295 partner limits assumed): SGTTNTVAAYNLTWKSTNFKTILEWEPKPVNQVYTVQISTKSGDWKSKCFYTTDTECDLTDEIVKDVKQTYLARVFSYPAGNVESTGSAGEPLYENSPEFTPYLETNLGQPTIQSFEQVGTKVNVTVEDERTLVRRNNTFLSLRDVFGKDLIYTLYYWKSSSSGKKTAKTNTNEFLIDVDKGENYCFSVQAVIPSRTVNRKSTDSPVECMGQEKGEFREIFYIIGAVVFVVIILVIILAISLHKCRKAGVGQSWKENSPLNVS

| SMILES | pIC50 [1] | logP ([2]; logP) | pIC50 [3] | logP [2] | pIC50 [4] | logP [5] |
| --- | --- | --- | --- | --- | --- | --- |
| CC/C=C\C/C=C\C/C=C\CCCCCCCC(=O)O [LINOLENIC ACID] | < 3.70 | 2.51 | 4.52 | – | – | – |
| CC/C=C\C/C=C\C/C=C\CCCCCCCCCC(=O)O | < 3.70 | 3.3 | 4.00 | – | – | – |
| CCCCC/C=C\C/C=C\C/C=C\CCCCC(=O)O [GAMOLENIC ACID] | < 3.70 | 2.55 | 4.52 | – | – | – |
| CCCC/C=C\CCCCCCCC(=O)O [MYRISTOLEIC ACID] | < 3.70 | – | 4.18 | – | – | – |
| CCCCCC/C=C\CCCCCCCc1cccc(O)c1C(=O)O [GINGKOLIC ACID] | < 3.70 | 3.99 | 4.49 | – | – | – |
| CCCCC/C=C\C/C=C\C/C=C\C/C=C\CCCC(=O)O [ARACHIDONIC ACID] | < 3.70 | – | 3.98 | 2.9 | – | – |
| CCCCCC/C=C\CCCCCCCC(=O)O [PALMITOLEIC ACID] | < 3.70 | 2.73 | 3.92 | – | – | – |
| CCCCC/C=C\C/C=C\CCCCCCCc1cccc(O)c1C(=O)O | < 3.70 | 3.72 | 4.48 | – | – | – |
| CCCCC/C=C\C/C=C\C/C=C\CCCCCCC(=O)O [DIHOMO-GAMMA-LINOLENIC ACID] | < 3.70 | 3.5 | 4.12 and 4.52 | – | < 3.70 | 3.28 |
| CCCCCCCC/C=C\CCCCCCCC(=O)O [OLEIC ACID] | < 3.70 | 3.54 | 4.10 | – | – | – |
| CCCCC/C=C\C/C=C\CCCCCCCC(=O)O [LINOLEIC ACID] | < 3.70 | 3 | 4.39 | – | – | – |
| CC/C=C\C/C=C\C/C=C\C/C=C\C/C=C\CCCC(=O)O [ICOSAPENT] | < 3.70 | 2.48 | 4.11 | – | – | – |
| CCCCC/C=C\C/C=C\CCCCCCCCCC(=O)O | < 3.70 | 2.41 | 4.28 | – | – | – |
